Changes are numbered by the printed parent chain.
How the values were obtained:
Test in all cases: biotin-switch assay, anti-GST western blot
Assay type in all cases: binding
[1] = biological target: T1, RNF41 (Homo sapiens, UniProt Q9H4P4, C134S); details: covalent (S-nitrosylation of cysteine); 100 μM GSNO
T1 sequence (Q9H4P4 1-317 C134S): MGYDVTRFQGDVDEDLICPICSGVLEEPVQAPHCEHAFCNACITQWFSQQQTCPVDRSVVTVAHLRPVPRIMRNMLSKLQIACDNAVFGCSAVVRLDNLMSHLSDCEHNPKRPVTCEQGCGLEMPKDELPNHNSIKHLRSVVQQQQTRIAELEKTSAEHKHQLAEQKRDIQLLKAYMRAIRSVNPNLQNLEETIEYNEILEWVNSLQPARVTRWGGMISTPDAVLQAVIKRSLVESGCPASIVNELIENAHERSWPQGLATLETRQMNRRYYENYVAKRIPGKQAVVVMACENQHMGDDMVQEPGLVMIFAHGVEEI

[2] = biological target: T2, RNF141 (Homo sapiens, UniProt Q8WVD5, C82S); details: covalent (S-nitrosylation of cysteine); 100 μM GSNO
T2 sequence (Q8WVD5 1-230 C82S): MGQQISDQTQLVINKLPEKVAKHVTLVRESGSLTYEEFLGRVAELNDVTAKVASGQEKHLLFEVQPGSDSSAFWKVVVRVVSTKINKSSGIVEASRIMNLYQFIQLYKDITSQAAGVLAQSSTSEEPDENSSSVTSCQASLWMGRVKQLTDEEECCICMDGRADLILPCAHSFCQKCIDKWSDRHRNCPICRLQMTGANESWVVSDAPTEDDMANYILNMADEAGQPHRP

[3] = biological target: T3, RNF41 (Homo sapiens, UniProt Q9H4P4, C106S); details: covalent (S-nitrosylation of cysteine); 100 μM GSNO
T3 sequence (Q9H4P4 1-317 C106S): T1 sequence (Q9H4P4 1-317 C134S) with C106S, S134C

[4] = biological target: T4, RNF41 (Homo sapiens, UniProt Q9H4P4, C238S); details: covalent (S-nitrosylation of cysteine); 100 μM GSNO
T4 sequence (Q9H4P4 1-317 C238S): T1 sequence (Q9H4P4 1-317 C134S) with S134C, C238S

[5] = biological target: T5, RNF141 (Homo sapiens, UniProt Q8WVD5); details: covalent (S-nitrosylation of cysteine); 100 μM GSNO
T5 sequence (Q8WVD5 1-230): T2 sequence (Q8WVD5 1-230 C82S) with S82C

[6] = biological target: T6, RNF11 (Homo sapiens, UniProt Q9Y3C5, C4S); details: covalent (S-nitrosylation of cysteine); 100 μM GSNO
T6 sequence (Q9Y3C5 1-154 C4S): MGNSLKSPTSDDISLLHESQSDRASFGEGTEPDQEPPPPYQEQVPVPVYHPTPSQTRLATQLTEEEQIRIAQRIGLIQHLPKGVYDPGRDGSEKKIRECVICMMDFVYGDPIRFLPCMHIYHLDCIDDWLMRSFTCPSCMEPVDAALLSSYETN

[7] = biological target: T7, RNF11 (Homo sapiens, UniProt Q9Y3C5); details: covalent (S-nitrosylation, Cys4); 100 μM GSNO, 1 h; GSH control
T7 sequence (Q9Y3C5 1-154): T6 sequence (Q9Y3C5 1-154 C4S) with S4C

Compound: N[C@@H](CCC(=O)N[C@@H](CSN=O)C(=O)NCC(=O)O)C(=O)O [GSNO]
- S-nitrosylation (BSM) [1]: C134S and C238S mutants have minimal effect on the S-nitrosylation of RNF41
- S-nitrosylation (BSM) [2]: The C82S and C175S RNF141 proteins both show reduced S-nitrosylation compared with WT RNF141
- S-nitrosylation (BSM) [3]: The C106S RNF41 protein S-nitrosylation signal is dramatically reduced compared with WT RNF41
- S-nitrosylation (BSM) [4]: C134S and C238S mutants have minimal effect on the S-nitrosylation of RNF41
- S-nitrosylation (BSM) [5]: The C82S and C175S RNF141 proteins both show reduced S-nitrosylation compared with WT RNF141
- S-nitrosylation (BSM) [6]: The C4S RNF11 protein is not S-nitrosylated
- biotin-switch assay, anti-GST western blot [7]: Cys4 is S-nitrosylated in RNF11

Reference: paper PMC3879630 (Molecular & Cellular Proteomics : MCP, 2013)
